In patent publication US5670506A, “Halogen, isothiocyanate or azide substituted xanthines” (Cell Therapeutics, Inc., priority 1993, dated 1997):

Experiments:
Format in all cases: cell-based
[1] = tested on: transformed cells (Ras 3T3) and normal 3T3 cells; experiment: cytotoxicity in transformed and normal 3T3 cells
Description: A similar experiment is shown in FIG. 9 for five inventive compounds (see Table 1 […] for chemical names) showing differential cytotoxicity for the same normal and transformed cells.
Each inventive compound is investigated for cytotoxicity to determine appropriate doses for biological activity assays and to prevent cytotoxic reactions in in vitro assays when characterizing activity. Cells (e.g., NIH-3T3, Ras transformed 3T3 cells, malignant melanoma LD2 cells, etc.) are added to microtiter plates and drug is added about two days after plating. Cell viability is determined using a fluorescent viability stain (e.g., 2',7'-bis-(2-carboroxyethyl)-5-(and -6)-carboxyfluorescein acetoxymethyl ester, BCECF excitation 488 nm and emission 525 nm) 24, 48 or 72 hours after addition of the drug.
This example illustrates a comparison of cytotoxicity determinations for CT1595 in transformed cells (Ras 3T3) and in normal 3T3 cells at drug doses of 1, 10 and 100 μM in in vitro cell culture conditions (FIG. 8). […] A similar experiment is shown in FIG. 9 for five inventive compounds (see Table 1 above for chemical names) showing differential cytotoxicity for the same normal and transformed cells.

mast cell line (PT-18) = experiment: total PA mass in mast cell line stimulated by IgE and DNP; details: FIG. 13; IgE and DNP stimulation, in words
[2] = tested on: TNF release from monocytes in whole blood; experiment: ex vivo human TNF model, LPS-mediated TNF release in whole blood; details: FIG. 14
Description: (§1) This model adds LPS to whole blood (normal human volunteers) to trigger a dose-dependent synthesis and extracellular release of TNF according to Desch et al. (Lymphokine Res. 8:141, 1989). The ex vivo model examines whether LPS-mediated release of TNF from monocytes in whole blood can be block by an inventive compound.
An ex vivo human sepsis model is described in Desch et al., Lymphokine Res. 8:141, 1989 and in Ooi et al., J. Exp. Med. 174:649, 1991. Briefly, whole blood from humans is incubated with LPS (endotoxin). TNF released from cells (mostly from monocytes) is measured. The inventive compounds lower TNF levels as compared with untreated controls in this model.
as §1, with “This example illustrates a comparative experiment comparing CT1595, CT1529 and CT2519 in an ex vivo human TNF model described herein. This assay is a predictive model for treatment and prevention of septic shock and sepsis syndrome. This” for “This”

[3] = tested on: CMV promoter activity in transformed (adenovirus) cells; experiment: CMV promoter assay (gene transcription and translation, cytotoxic activity); details: read-out: IC50 (μM), CMV promoter assay
Excerpt: This example illustrates data regarding proliferative activity of various inventive compounds for inducting CMV promoter activity. The CMV promoter assay measures gene transcription and translation activity wherein any active compounds will nave cytotoxic activity to inhibit cellular protein synthesis machinery in transformed (adenovirus) cells.

mast cells = experiment: mast cell degranulation, serotonin release assay
Excerpt: A serotonin release assay is utilized to study the utility of the inventive compounds for treatment of asthma and allergy. This assay measures mast cell degranulation, which is an early phase reaction to allergen challenge. Mast cells grown in tissue culture are first loaded with ^3 H serotonin, which is incorporated into the granules in the cells. The mast cells are sensitized with antigen specific monoclonal IgE, and then triggered to degranulate with the specific antigen (dinitrophenol bound to BSA (DNP)). When the cells degranulate, ^3 H Serotonin is released into the medium, and can be measured directly. The ability of the inventive compounds to inhibit the degranulation response is determined by the decrease in ^3 H Serotonin released in the presence of drug and is represented as % INHIBITION. The IC50 of any given compound is determined by the ability of that compound to inhibit degranulation by 50%.
Specifically, the serotonin release assay seeds 2×10^5 cells in 0.5 ml medium in duplicate for spontaneous release, IgE+DNP, IgE+DNP+EtOH (vehicle control), and inventive compounds. One μCi [^3H ]-Serotonin/ml (i.e., 0.5 μCi/well) (NEN Research Products, cat. #NET-398 Hydroxytryptamine Binoxalate, 5-[1,2-^3 H(N)]-(Serotonin Binoxalate, [1,2-^3 H(N)]-)) and 1 μl/ml IgE is added. The cells are incubated for 18 hours at 37° C. in 5% CO2, washed twice with 0.5 ml Isotonic Buffer (25 mM disodium PIPES pH 7.1,100 mM NaCl, 5 mM KCl, 5 mM glucose, 0.4 mM MgCl2, 1 mM CaCl2, 0.1% BSA), and sterile filtered. 250 μl Isotonic Buffer is added per well and the plates are equilibrated in an incubator for about 10 min. Drug is added and cells are activated with 40 ng/ml DNP-BSA (1 mg/ml Diluted 1:200 in Isotonic Buffer) for 45 minutes using 2 μl/250 μl. Spontaneous release is determined in incubated cells with 250 μl Isotonic Buffer for 45 minutes and the reaction is stopped by removing supernatant and centrifuging at ~4000 rpm in microfuge for 15 seconds to remove any detached cells. Released radiolableled serotonin is counted. To determine amount of ^3 H-serotonin incorporated into the cells, (a) remove Isotonic Buffer and lyse cells by adding 250 μl 1% Triton-X100 in PBS, (b) add to 5 ml scintillation fluid, (c) wash 2× with Triton/PBS, and (d) add washes to scintillation tube. Percent serotonin release is calculated by dividing the amount of released serotonin by the sum of incorporated plus released serotonin and correcting for spontaneous released serotonin. Compound inhibition is calculated by dividing the percent serotonin release in the presence of a compound by the percent serotonin release in the absence of the compound.
This assay is described above and provides an in vitro model for an allergy and asthma therapeutic compound.

Cn1cnc2c1c(=O)n(CCCCC(=O)CCl)c(=O)n2C [CT1595, 1-(6-chloro-5-oxohexyl)-3,7-dimethylxanthine]
differential cytotoxicity, transformed vs normal 3T3 cells ([1]; FIG. 8, 1, 10 and 100 μM): more cytotoxic for the cancer cell than the normal cell
cytotoxic activity, normal and transformed 3T3 cells ([1]; FIG. 9, five compounds): significant cytotoxic activity
IC50 for accumulation of PA (mast cell line (PT-18)): low nanomolar range
block of LPS-mediated TNF release [2]: could block TNF release in a dose-dependent fashion
IC50 [3]: 20 µM
inhibition at 50 µM (mast cells; 50 μM): 44%
inhibition at 100 µM (mast cells; 100 μM): 88%
